Reference: PubChem BioAssay (NCI)
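Five compound concentrations were applied to cells in 96-well plates for 48 hours; endpoints were derived by simple linear interpolation of the resulting dose-response curve. The concentration for full growth arrest is given as TGI.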

How the values were obtained:
Assay in all cases: NCI anticancer screen, dose series, 48 h
SR leukemia = system: SR leukemia
SK-MEL-5 melanoma = system: SK-MEL-5 melanoma
SK-MEL-28 melanoma = system: SK-MEL-28 melanoma
HL-60(TB) leukemia = system: HL-60(TB) leukemia
SF-295 CNS = system: SF-295 CNS
UO-31 renal = system: UO-31 renal
SN12C renal = system: SN12C renal
786-0 renal = system: 786-0 renal
UACC-257 melanoma = system: UACC-257 melanoma
DMS 273 small cell lung = system: DMS 273 small cell lung
SNB-75 CNS = system: SNB-75 CNS
NCI-H522 lung = system: NCI-H522 lung
MALME-3M melanoma = system: MALME-3M melanoma
KM20L2 colon = system: KM20L2 colon
OVCAR-5 ovarian = system: OVCAR-5 ovarian
NCI-H23 lung = system: NCI-H23 lung
SW-620 colon = system: SW-620 colon
SNB-19 CNS = system: SNB-19 CNS
TK-10 renal = system: TK-10 renal
UACC-62 melanoma = system: UACC-62 melanoma
HCC-2998 colon = system: HCC-2998 colon
CCRF-CEM leukemia = system: CCRF-CEM leukemia
SK-MEL-2 melanoma = system: SK-MEL-2 melanoma
IGROV1 ovarian = system: IGROV1 ovarian
U251 CNS = system: U251 CNS
M19-MEL melanoma = system: M19-MEL melanoma
K-562 leukemia = system: K-562 leukemia
A549 NSCLC = system: A549 NSCLC
RPMI-8226 leukemia = system: RPMI-8226 leukemia
KM12 colon = system: KM12 colon
HT29 colon = system: HT29 colon
HCT-15 colon = system: HCT-15 colon
LOX IMVI melanoma = system: LOX IMVI melanoma
NCI-H460 lung = system: NCI-H460 lung
HOP-62 NSCLC = system: HOP-62 NSCLC
DMS 114 small cell lung = system: DMS 114 small cell lung
OVCAR-4 ovarian = system: OVCAR-4 ovarian
LXFL 529 NSCLC = system: LXFL 529 NSCLC
SF-268 CNS = system: SF-268 CNS
M14 melanoma = system: M14 melanoma
OVCAR-8 ovarian = system: OVCAR-8 ovarian
SNB-78 CNS = system: SNB-78 CNS
DLD-1 colon = system: DLD-1 colon
HCT-116 colon = system: HCT-116 colon
EKVX NSCLC = system: EKVX NSCLC
A498 renal = system: A498 renal
MOLT-4 leukemia = system: MOLT-4 leukemia
ACHN renal = system: ACHN renal
XF 498 CNS = system: XF 498 CNS
OVCAR-3 ovarian = system: OVCAR-3 ovarian
NCI-H226 lung = system: NCI-H226 lung
COLO 205 colon = system: COLO 205 colon
SK-OV-3 ovarian = system: SK-OV-3 ovarian
HOP-18 NSCLC = system: HOP-18 NSCLC
RXF 393 renal = system: RXF 393 renal
HOP-92 NSCLC = system: HOP-92 NSCLC
CAKI-1 renal = system: CAKI-1 renal
SF-539 CNS = system: SF-539 CNS

Measured: TGI

CCN(CC)CC1CCCCCCCCCCC1=O (stereo not drawn)
not listed: SK-OV-3 ovarian | HOP-18 NSCLC | RXF 393 renal | HOP-92 NSCLC | CAKI-1 renal | SF-539 CNS
> 100 µM: all other assays above

Cc1ccc(S(=O)(=O)N(CC(=O)O)c2ccccc2)cc1
not listed: SR leukemia | HOP-62 NSCLC | DMS 114 small cell lung | SNB-78 CNS | HCT-116 colon | XF 498 CNS | NCI-H226 lung
> 100 µM: all other assays above
